In patent US10487046B1, “Dihydroxytyrosol hexamethylene-1,6-dicarbamate having antioxidant activity and a method of preparing the same” (SHAANXI UNIVERSITY OF SCIENCE AND TECHNOLOGY, priority 2019, dated 2019):

Assay: DPPH Radical Scavenging Activity Assay
Assay type: biochemical
Details: for Scavenging Activity (%) (n = 3): DPPH 0.2×10^−4 mol/L in methanol, 30 minutes, 517 nm
Description: DPPH Radical Scavenging Activity Assay 2,2-Diphenyl-1-picryl hydrazyl (DPPH) is an organic compound composed of a stable organic radical. In the DPPH molecule, due to the presence of multiple electron-withdrawing —NO2 and large it bonds of the benzene ring, nitrogen free radical is stabilized. Its methanol solution is purple and has a maximum absorption peak at 517 nm. After the addition of an antioxidant, DPPH captures an electron to be paired with the free electron, and the purple fades and turns into a yellow substance. The absorption at 517 nm disappears, and the degree of fading is quantitatively related to the number of electrons it captures. Based on this principle, a spectrophotometer is used to detect the change of the absorbance of the DPPH radical and the sample solution, and the ability of the sample to provide hydrogen atoms and scavenge free radicals can be measured. (a) Preparation of DPPH solution: measuring exact amount of 2,2-diphenyl-1-picryl hydrazyl (DPPH) and dissolving in methanol to prepare a 0.2×10^−4 mol/L DPPH solution, stored at 0° C. in dark. (b) Preparation of sample solutions: Vc (vitamin C, positive control), dihydroxytyrosol hexamethylene-1,6-dicarbamate, and hydroxytyrosol (control) were dissolved in methanol and diluted in a concentration gradient. Measuring the scavenging activity of the sample solutions: 2 mL of the sample solutions (table 1) at each concentration gradient was taken, 2 mL 0.2×10^−4 mol/L DPPH solution was added, the mixture was mixed and reacted at room temperature in dark for 30 minutes, and methanol was then added to adjust final volume. The absorbance Ai was measured at 517 nm. 2 mL control solution and 2 mL methanol were mixed, and the absorbance Aj was measured. 2 mL DPPH solution and 2 mL methanol were mixed, and the absorbance Ao was measured. (d) The scavenging activity of the sample solution and control solutions is calculated according to the following calculation formula and shown in Table 3 and FIG. 3. Scavenging activity (%)=100×[1−(Ai−Aj)/Ao]

Compound	Scavenging Activity (%) (n = 3) (1.76 ppm)	Scavenging Activity (%) (n = 3) (8.80 ppm)	Scavenging Activity (%) (n = 3) (21.12 ppm)	Scavenging Activity (%) (n = 3) (42.24 ppm)	Scavenging Activity (%) (n = 3) (79.20 ppm)	Scavenging Activity (%) (n = 3) (112.64 ppm)	Scavenging Activity (%) (n = 3) (281.60 ppm)	Scavenging Activity (%) (n = 3) (492.80 ppm)	Scavenging Activity (%) (n = 3) (792.00 ppm)	Scavenging Activity (%) (n = 3) (915.20 ppm)	DPPH radical scavenging activity (in words) (1.76 to 915.20 ppm)	DPPH radical scavenging activity compared with hydroxytyrosol (B) (at same concentration)
OCCc1ccc(O)c(O)c1 [B, hydroxytyrosol]	8.69	10.97	18.10	28.89	41.44	45.83	60.58	72.81	76.35	80.61		
O=C(NCCCCCCNC(=O)OCCc1ccc(O)c(O)c1)OCCc1ccc(O)c(O)c1 [A, dihydroxytyrosol hexamethylene-1,6-dicarbamate]	19.87	23.68	37.02	68.43	76.52	86.33	91.48	95.31	96.66	97.14	obvious DPPH radical scavenging activity in a concentration dependent manner	better DPPH radical scavenging activity than hydroxytyrosol (B)
O=C1O[C@H]([C@@H](O)CO)C(O)=C1O [Vc, Vitamin C]	21.35	30.80	87.03	95.44	96.06	97.88	98.41	99.04	99.42	99.16		
